Values of other authors in US20260216201A1 (priority 2025, published 2026).

Details: n-octanol/buffer pH 7.4

SMILES: Cc1cnc(NC(=O)C2=C(O)c3ccccc3S(=O)(=O)N2C)s1 [Meloxicam, 4-hydroxy-2-methyl-N-(5 methyl-2-thiazolyl)-2H-1,2-benzothiazine-3-carboxamide-1,1-dioxide]
- apparent partition coefficient (log P): 0.1
